For this test, the system named is human neuroblastoma SK—N—SH cells. As to the kind of experiment: Cell protective activity against β-amyloid 25-35-induced neurotoxicity (Alamar Blue cell viability). The class given is cell-based. The settings on record: test compound 1 μM with β-amyloid 25-35 10 μM; rhIFN-γ-pretreated SK—N—SH cells; viability by Alamar Blue after 3 days; [(A−B)/(C−B)]×100. The source says:
Evaluation of cell protective activity against β-amyloid neurotoxicity in human neuroblastoma SK—N—SH cells.
• Human neuroblastoma SK—N—SH cells: obtained from American Type Tissue Culture Collection (ATCC). DMEM/F-12 medium: obtained from Nikken Biological Medicine Laboratory Co. • Ca^++ and Mg^++ free phosphate-buffered saline (PBS(−)): obtained Nikken Biological Medicine Laboratory Co. • N2 supplement™, and EDTA solution: obtained from Gibco BRL Co. • Fetal calf serum, and mixture of penicillin (5000 U/mL) and streptomycin (5 mg/mL): obtained from Bio Whittaker Co. • Recombinant human interferon gamma (rhIFN-γ): obtained from Wako Pure Chemical Co. • Alamar Blue™ reagent: obtained from AccuMed International, Inc. • Culture flasks: manufactured by Falcon Co. Collagen-coated, 96-well multi-plate: manufactured by Iwaki Glass Co. • β-amyloid 25-35: obtained from Bachem AG. • Other reagents: commercially-available special-grade chemicals. b) Test Method (1) Cultivation of SK—N—SH cells
SK—N—SH cells were sub-cultured in DMEM/F12 medium containing 5% FCS, 0.5% N2 supplement™, 1% of mixture of penicillin (5000 U/mL) and streptomycin (5 mg/mL), under 10 t CO2 and 90% air, using CO2 incubator. At sub-confluent condition, cells were harvested from culture flask with PBS(−) containing 2.5 mM EDTA, and plated at a density of 1.0×10^4 cells/100 μl of culture medium/well in collagen-coated 96-well multi-plate. The next day, 80 μl of culture medium was substituted with DMEM/F12 medium (containing neither FCS nor N2 supplement) containing 1.25 ng/mL of rhIFN-γ, and after 24 hr cultivation cells were used for cell toxicity assay mentioned below.
(2) Measurement of cell protective activity of test compounds against β-amyloid 25-35-induced neurotoxicity
After pretreatment of SK—N—SH cells with rhIFN-γ in collagen-coated 96 well multi-plate, cell toxicity assay was started by addition of β-amyloid 25-35 and test compound. Briefly, 80 μl of culture medium was removed, and 40 μl of β-amyloid 25-35 and 40 μl of test compound were added to cultures at the same time. The final concentrations of β-amyloid 25-35 and test compounds were 10 μM and 1 μM, respectively.
The test compound was dissolved at 10 mM in dimethylsulfoxide (DMSO) and diluted in DMEM/F12 medium. β-amyloid 25-35 was dissolved at 5 mM in sterile pure water, and stored at −80° C. Immediately before use, the stock solution β-amyloid 25-35 was diluted in DMEM/F12 medium and sonicated.
(3) Evaluation of cell protective activity of test compound
Cell viability was assessed by the reduction of Alamar Blue™ reagents, 3 days after starting of the cell toxicity assay. Briefly, 20 μl of culture medium was substituted with 20 μl of Alamar Blue™ reagents and incubated 4 hours. Absorbances were determined at wavelengths of 570 nm and 600 nm using a plate reader (MTP-32 Micro-plate Reader, manufactured by Corona Co.). Amount of reduced Alamar Blue reagents was determined by subtracting absorbance600 from absorbance570. The cell protective activity of the test compound was estimated according to the following equation: • Cell protective activity of compound [(A−B)/(C−B)]×100 (%) 20 where; • A: cell viability of the group treated with both the test compound and β-amyloid • B: cell viability of the group treated with β-amyloid only • C: cell viability of the control group Results
Cell viability of the group treated with both the test compound and β-amyloid was compared with that 30 group treated with β-amyloid only using Dunnett's test.
Cell viability of each group was determined using at least 4 culture well.
On the technique in general: The colour change of resazurin is a common sign of viable cells or microbes.

Data on seven molecules can be found in patent US7008950B1, “Benzofurans as suppressors of neurodegeneration” (Takeda Chemical Industries, Ltd., priority 1997, dated 2006).

Molecules are shown by their SMILES.

Take `Cc1c(C)c2c(c(C)c1OCc1ccccc1)C(c1ccc(C(C)C)cc1)C(C)(C)O2` (stereo not shown) [Example 1, 5-Benzyloxy-3-(4-isopropylphenyl)-2,2,4,6,7-pentamethyl-2,3-dihydrobenzofuran]: the “Cell Protecting Activity (%)” value was found to be 30.7%. Regarding `Cc1c(C)c2c(c(C)c1OCc1ccccc1)C(c1ccc(N(C)C)cc1)C(C)(C)O2` (stereo not shown) [Example 2, 5-Benzyloxy-3-[4-(dimethylamino)phenyl]-2,2,4,6,7-pentamethyl-2,3-dihydrobenzofuran], the “Cell Protecting Activity (%)” value was found to be 27.9%. For the molecule `Cc1c(C)c2c(c(C)c1OCc1ccccc1)CC(C)(CN1CCN(c3ccccc3)CC1)O2` (stereo not shown) [Example 3, 5-Benzyloxy-2,4,6,7-tetramethyl-2-(4-phenyl-1-piperazinyl)methyl-2,3-dihydrobenzofuran], the “Cell Protecting Activity (%)” value turned out to be 39.4%. Turning to `COc1ccc(COc2c(C)c(C)c3c(c2C)C(c2ccc(N4CCOCC4)cc2)C(C)(C)O3)cc1` (stereo not shown) [Example 7, 5-(4-Methoxybenzyloxy)-3-[4-(4-morpholinyl)phenyl]-2,2,4,6,7-pentamethyl-2,3-dihydrobenzofuran], the “Cell Protecting Activity (%)” value came out at 27.3%. As for `Cc1c(C)c2c(c(C)c1OCC=Cc1ccccc1)C(c1ccc(C(C)C)cc1)C(C)(C)O2` (stereo not shown) [Example 12, 3-(4-Isopropylphenyl)-2,2,4,6,7-pentamethyl-5-(3-phenyl-2-propen-1-yloxy)-2,3-dihydrobenzofuran], the “Cell Protecting Activity (%)” value is reported as 44.8%. Under `Cc1c(C)c2c(c(C)c1OCCC(c1ccccc1)c1ccccc1)C(c1ccc(C(C)C)cc1)C(C)(C)O2` (stereo not shown) [Example 14, 5-(3,3-Diphenylpropyloxy)-3-(4-isopropylphenyl)-2,2,4,6,7-pentamethyl-2,3-dihydrobenzofuran] stands 44.2%; under `Cc1c(C)c2c(c(C)c1OCCc1ccccc1)C(c1ccc(C(C)C)cc1)C(C)(C)O2` (stereo not shown) [Example 25, 3-(4-Isopropylphenyl)-2,2,4,6,7-pentamethyl-5-(2-phenylethyl)oxy-2,3-dihydrobenzofuran], 47.0%.
